Test results as given in patent publication US9434763B2, “Derivatives of pyridinone as inhibitors for tissue transglutaminase” (ZEDIRA GMBH, priority 2012, dated 2016).

Legend:
[1] = target: T1, His tagged recombinant human tissue transglutaminase (His6-rh-TG2) (Homo sapiens, UniProt P21980); test: Inactivation of human tissue transglutaminase, fluorescence assay with Abz-APE(CAD-DNP)QEA-OH; format: biochemical; conditions: substrate Abz-APE(CAD-DNP)QEA-OH, 37° C., pH=7.5
T1 construct: purchased Zedira T002
T1 sequence (P21980 1-687): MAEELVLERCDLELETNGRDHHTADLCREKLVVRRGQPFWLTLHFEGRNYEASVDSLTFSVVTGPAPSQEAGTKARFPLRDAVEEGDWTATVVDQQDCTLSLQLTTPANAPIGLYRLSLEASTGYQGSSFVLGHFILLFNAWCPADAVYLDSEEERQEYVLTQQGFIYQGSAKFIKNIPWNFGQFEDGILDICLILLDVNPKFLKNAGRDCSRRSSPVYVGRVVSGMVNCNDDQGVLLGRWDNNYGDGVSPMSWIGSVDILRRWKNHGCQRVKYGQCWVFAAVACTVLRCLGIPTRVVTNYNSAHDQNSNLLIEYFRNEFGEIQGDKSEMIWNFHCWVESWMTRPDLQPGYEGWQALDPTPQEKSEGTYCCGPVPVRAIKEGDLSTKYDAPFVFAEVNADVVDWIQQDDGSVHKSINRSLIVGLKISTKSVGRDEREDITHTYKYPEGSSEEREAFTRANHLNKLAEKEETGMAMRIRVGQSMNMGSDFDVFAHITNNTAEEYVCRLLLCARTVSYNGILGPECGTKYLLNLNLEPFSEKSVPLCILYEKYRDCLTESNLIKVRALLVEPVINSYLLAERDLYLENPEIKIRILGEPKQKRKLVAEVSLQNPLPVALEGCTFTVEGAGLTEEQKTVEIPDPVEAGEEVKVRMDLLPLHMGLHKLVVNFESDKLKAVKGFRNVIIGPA
How it was run: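 His6-rh-TG2 (10 μg per assay) was preincubated 5 min at 37 °C with inhibitor in Tris/CaCl2/PEG8000/DTT/glycine methyl ester assay solution (50 μM Abz-APE(CAD-DNP)QEA-OH), pH 7.5, DMSO <0.2%. Fluorescence (ex 313/em 418 nm) read over 15–30 min and activity taken from the slope. IC50 from activity vs log inhibitor concentration.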

[2] = test system: Huh 7 (human hepatome-cell line); test: Cytotoxicity: metabolic activity, EZ4U-Assay, Huh 7; format: cell-based; conditions: Huh7 cells; 48 hours after addition; inhibitors up to 1 mM (so in the source); cycloheximide 2.5 μg/ml, camptothecin 0.2 μg/ml
Protocol: (§1) Huh 7 (human hepatome-cell line) and CaCo2 (human colon carcinoma-cell line) were seeded to 96 well plates in Dulbecco's Modified Eagle's Medium (DMEM)/10% fetal calf serum (FCS) and cultivated. The method is known to the skilled person.
(§2) […] The determination of the proliferation was carried out using the Cell Proliferation ELISA, BrdU (Roche 11 647 229 001): 24 hours after incubation of the cells with the inhibitor BrdU was added. The colorimetric development of the test was made after further 48 hours according to manufacturer's information. The extinction was measured at 450 nm. For determination of the metabolic activity using the EZ4U-Assay (Biomedica B1-5000) the tetrazolium substrate was added to the cells 48 hours after addition of the inhibitor. The capacity for reaction of the cells was measured every hour over a period of 4 hours at 450 nm against a reference filter of 630 nm. DMEM without inhibitor was added as reference in both experiments, as positive control cycloheximide (2.5 μg/ml) and camptothecin (0.2 μg/ml).

[3] = test system: Huh 7 (human hepatome-cell line); test: Cytotoxicity: proliferation, Cell Proliferation ELISA, BrdU, Huh 7; format: cell-based; conditions: Huh7 cells; inhibitors up to highest measured concentration of 1 mM (so in the source); cycloheximide 2.5 μg/ml, camptothecin 0.2 μg/ml
Protocol: as §1, §2

[4] = test system: CaCo2 (human colon carcinoma-cell line); test: Cytotoxicity: proliferation, Cell Proliferation ELISA, BrdU, CaCo2; format: cell-based; conditions: CaCo2 cells; inhibitors up to highest measured concentration of 1 mM (so in the source); cycloheximide 2.5 μg/ml, camptothecin 0.2 μg/ml
Protocol: as §1, §2

[5] = test system: CaCo2 (human colon carcinoma-cell line); test: Cytotoxicity: metabolic activity, EZ4U-Assay, CaCo2; format: cell-based; conditions: CaCo2 cells; 48 hours after addition; inhibitors up to 1 mM (so in the source); cycloheximide 2.5 μg/ml, camptothecin 0.2 μg/ml
Protocol: as §1
After one hour the inhibitors A63 (ZED1227), A29 (ZED1098) and A61 (ZED1219) were added in the concentrations 0.1 μM to 1 μM. The determination of the proliferation was carried out using the Cell Proliferation ELISA, BrdU (Roche 11 647 229 001): 24 hours after incubation of the cells with the inhibitor BrdU was added. The colorimetric development of the test was made after further 48 hours according to manufacturer's information. The extinction was measured at 450 nm. For determination of the metabolic activity using the EZ4U-Assay (Biomedica B1-5000) the tetrazolium substrate was added to the cells 48 hours after addition of the inhibitor. The capacity for reaction of the cells was measured every hour over a period of 4 hours at 450 nm against a reference filter of 630 nm. DMEM without inhibitor was added as reference in both experiments, as positive control cycloheximide (2.5 μg/ml) and camptothecin (0.2 μg/ml).

Row | Structure (SMILES) | IC50 [1] | effect on metabolic activity (EZ4U) [2] | effect on proliferation (BrdU) [3] | effect on proliferation (BrdU) [4] | effect on metabolic activity (EZ4U) [5]
1 | CC[C@@]1(O)C(=O)OCc2c1cc1n(c2=O)Cc2cc3ccccc3nc2-1 [camptothecin, reference compound] |  | significant reduction | significant reduction | significant reduction | significant reduction
2 | C[C@@H]1C[C@@H]([C@H](O)CC2CC(=O)NC(=O)C2)C(=O)[C@@H](C)C1 [cycloheximide, reference compound] |  | significant reduction | significant reduction | significant reduction | significant reduction

Second part, led by results:

Row | IC50 [1] | Structure (SMILES) | effect on metabolic activity (EZ4U) [2] | effect on proliferation (BrdU) [3] | effect on proliferation (BrdU) [4] | effect on metabolic activity (EZ4U) [5]
3 | 54700 nM | CCC(CC)CNC(=O)Cn1cccc(NC(=O)[C@@H](CC/C=C/C(=O)OC)NC(=O)c2cncn2C)c1=O [A76, (R,E)-Methyl 7-(1-(2-(2-ethylbutylamino)-2-oxoethyl)-2-oxo-1,2-dihydropyridin-3-ylamino)-6-(1-methyl-1H-imidazole-5-carboxamido)-7-oxohept-2-enoate] |  |  |  | 
4 | 469 nM | CC(=O)N[C@@H](CC/C=C/S(C)(=O)=O)C(=O)Nc1cccn(CC(=O)NCCC(C)C)c1=O [A77, (S,E)-2-acetamido-N-(1-(2-(isopentylamino)-2-oxoethyl)-2-oxo-1,2-dihydropyridin-3-yl)-6-(methylsulfonyl)hex-5-enamide] |  |  |  | 
5 | 627 nM | CC(=O)N[C@@H](CC/C=C/C(=O)OCc1ccccc1)C(=O)Nc1cccn(CC(=O)NCCC(C)C)c1=O [A78, (S,E)-Benzyl 6-acetamido-7-(1-(2-(isopentylamino)-2-oxoethyl)-2-oxo-1,2-dihydropyridin-3-ylamino)-7-oxohept-2-enoate] |  |  |  | 
